In patent publication US20190048321A1, “Macrophage Enrichment of Cancer Stem Cells” (UNIVERSITY OF SOUTH CAROLINA, priority 2017, published 2019):

Experiments:
[1] = test system: CSCs in MDA-MB-231 breast tumor cells; test: 3D PEGDA hydrogel co-culture of MDA-MB-231 cancer cells with macrophages treated with Paclitaxel (MDA+Mac/PTX); format: cell-based, human
Experimental: (§1) Polyethylene glycol was functionalized with acrylate end-groups by reaction with acryloyl chloride using well-established procedures to generate a photopolymerizable polyethylene glycol diacrylate (PEGDA). The PEGDA and a photoinitiator (4-(2-hydroxyethoxy)phenyl-(2-hydroxy-2-propyl) ketone (commercial name Irgacure-2959)) were dissolved in aqueous solution to generate a hydrogel precursor solution. Prior to cure, the hydrogel precursor solution was combined with MDA-MB-231 human breast cancer cells alone (MDA), with human spleen-derived macrophages alone (Mac) or with both (MDA+Mac).
(§2) To form the matrices, the cancer cells and/or macrophages were suspended in the PEGDA hydrogel precursor solution, the suspension was pipetted in a tissue culture plate as a thin film, and the film was photopolymerized with UV radiation to encapsulate the cells in the hydrogel matrix.
(§3) This co-culture system was also used to screen Paclitaxel (PTX) toxicity against CSCs. […] MDA cancer cells cultured alone with no PTX (MDA) grew by forming tumor spheres with mixed population of stem and differentiated cells and as shown the growing cells expressed CSC markers.

MDA-MB-231 cells = details: 2D tissue culture plates, previous studies; cited from earlier work
[2] = test system: MDA-MB-231 human breast cancer cells; test: 3D PEGDA hydrogel culture of MDA-MB-231 cancer cells alone treated with Paclitaxel (MDA+PTX); format: cell-based
Experimental: as §1, §2, §3

CC(=O)O[C@H]1C(=O)[C@@]2(C)[C@H]([C@H](OC(=O)c3ccccc3)[C@]3(O)C[C@H](OC(=O)[C@H](O)[C@@H](NC(=O)c4ccccc4)c4ccccc4)C(C)=C1C3(C)C)[C@]1(OC(C)=O)CO[C@@H]1C[C@@H]2O [PTX, Paclitaxel]
cell growth / cell content ([1]; MDA cancer cells with macrophages in 5 kPa PEGDA matrix, treated with PTX (FIG. 4a)): effective in halting cell growth and the cell content decreased | expression of CSC markers (CD44, ABCG2, EGFR) ([1]; MDA cancer cells with macrophages treated with PTX, with incubation (FIG. 4b-d)): sharply increased | effectiveness against CSCs ([1]; MDA+Mac/PTX co-culture screen, MDA-MB-231 breast tumor cells): ineffective against CSCs | effectiveness against MDA-MB-231 cells (MDA-MB-231 cells): effective | cell number ([2]; MDA cancer cells alone treated with PTX (MDA+PTX) (FIG. 4a)): increased somewhat | expression of CSC markers ([2]; MDA cancer cells alone treated with PTX (MDA+PTX) (FIG. 4b-d)): increased significantly
